Results: US20260256702A1, “SUSTAINED ADJUNCT THERAPY TO IMPROVE CHEMOTHERAPY EFFICACY IN GLIOBLASTOMA IN A CEREBROVASCULA TUMOR-ON-A-CHIP MODEL” (Ohio State Innovation Foundation, priority 2022, published 2026)

Tested on: human umbilical vein endothelial cells (HUVECs)
Test: Capillary tubule formation assay
Type: cell-based
Excerpt: We have developed a novel process that combines electrospinning, sintering, and salt leaching to create tunable capsules for long-term controlled release of a compound. The capsules enable high levels of therapeutic loading with preserved bioactivity due to the hollow core that is loaded post-processing without the typical loss seen during encapsulation procedures. The polymers in the device are biocompatible, biodegradable, and used for applications in drug delivery. Chitosan, a positively charged biopolymer was selected for the inner layer of the capsule to electrostatically interact with negatively charged proteins, peptides, and antibodies (e.g. anti-VEGF, αCT11) to slow release. Poly(caprolactone) (PCL) was selected for the outer layer of the device due to its hydrophobicity that slows hydrolytic degradation. Capsule inner diameters ranged from 0.26-1.7 mm, with average wall thickness of 90 μm. Scanning electron microscopy (SEM) was used to measure capsule dimensions and pore size (FIG. 5A). No pores were present after sintering when prepared without salts. Pore size increased from 237±97 nm to 609±274 nm for 1% to 10% salt concentrations, and elution was increased at >5% salt concentration due to pore interconnectivity. In preliminary studies, in vitro release of model protein BSA and anti-VEGF (bevacizumab) were evaluated. […]

bevacizumab: anti-VEGF (149 kDa), released from capsules
tubule formation (VEGF 5 ng/ml, 10 μg/ml bevacizumab released from capsules at time points out to 9 months): tubule formation was inhibited | tubule size versus fresh anti-VEGF control (anti-VEGF released after 9 months, 5 ng VEGF): no significant difference in tubule size
